ChEMBL document CHEMBL5291721, “A preclinical secondary pharmacology resource illuminates target-adverse drug reaction associations of marketed drugs” (Nat Commun, 2023)

Legend:
Progesterone receptor = target: T1, Progesterone receptor (Homo sapiens, UniProt P06401); format: functional
T1 sequence (P06401 whole entry): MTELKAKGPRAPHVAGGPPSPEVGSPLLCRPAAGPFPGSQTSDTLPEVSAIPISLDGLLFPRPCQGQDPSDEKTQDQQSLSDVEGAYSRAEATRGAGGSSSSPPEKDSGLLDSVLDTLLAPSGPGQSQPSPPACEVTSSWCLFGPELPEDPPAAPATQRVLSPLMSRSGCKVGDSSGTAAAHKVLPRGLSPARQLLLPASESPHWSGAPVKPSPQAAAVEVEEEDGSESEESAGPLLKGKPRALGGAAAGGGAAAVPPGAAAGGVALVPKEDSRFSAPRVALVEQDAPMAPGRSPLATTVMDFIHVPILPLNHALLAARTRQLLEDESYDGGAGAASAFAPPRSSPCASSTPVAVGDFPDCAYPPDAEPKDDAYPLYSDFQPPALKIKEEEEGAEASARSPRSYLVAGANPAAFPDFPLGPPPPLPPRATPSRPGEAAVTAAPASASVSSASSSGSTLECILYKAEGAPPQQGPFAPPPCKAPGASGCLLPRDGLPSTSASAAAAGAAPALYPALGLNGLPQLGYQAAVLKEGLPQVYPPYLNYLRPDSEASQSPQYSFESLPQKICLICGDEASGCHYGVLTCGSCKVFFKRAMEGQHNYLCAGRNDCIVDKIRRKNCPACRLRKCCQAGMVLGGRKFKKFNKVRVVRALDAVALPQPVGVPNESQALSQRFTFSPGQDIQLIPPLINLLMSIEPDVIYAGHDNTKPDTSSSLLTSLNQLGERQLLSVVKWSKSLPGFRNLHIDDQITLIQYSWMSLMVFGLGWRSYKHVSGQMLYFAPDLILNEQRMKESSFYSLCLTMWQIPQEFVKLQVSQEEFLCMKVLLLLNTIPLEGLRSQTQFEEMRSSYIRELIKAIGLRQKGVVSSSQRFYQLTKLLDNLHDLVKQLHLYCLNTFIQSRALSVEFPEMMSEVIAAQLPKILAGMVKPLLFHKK

[1] = target: T2, Muscarinic acetylcholine receptor M1 (Homo sapiens, UniProt P11229); format: functional
T2 sequence (P11229 whole entry): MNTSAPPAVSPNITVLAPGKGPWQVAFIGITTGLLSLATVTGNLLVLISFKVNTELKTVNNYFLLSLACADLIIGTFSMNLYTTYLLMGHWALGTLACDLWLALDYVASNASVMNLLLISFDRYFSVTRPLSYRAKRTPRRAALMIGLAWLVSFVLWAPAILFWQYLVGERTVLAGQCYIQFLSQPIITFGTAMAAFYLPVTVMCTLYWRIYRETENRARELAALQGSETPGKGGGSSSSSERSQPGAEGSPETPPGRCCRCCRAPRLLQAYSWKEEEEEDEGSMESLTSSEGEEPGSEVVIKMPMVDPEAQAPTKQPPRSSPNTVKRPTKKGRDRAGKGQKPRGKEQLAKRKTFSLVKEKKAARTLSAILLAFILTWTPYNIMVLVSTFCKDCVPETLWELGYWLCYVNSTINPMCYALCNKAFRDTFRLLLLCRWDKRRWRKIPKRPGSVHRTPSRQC

Vasopressin V1a receptor = Vasopressin V1a receptor (Homo sapiens, UniProt P37288)
Chain of Vasopressin V1a receptor (P37288 whole entry): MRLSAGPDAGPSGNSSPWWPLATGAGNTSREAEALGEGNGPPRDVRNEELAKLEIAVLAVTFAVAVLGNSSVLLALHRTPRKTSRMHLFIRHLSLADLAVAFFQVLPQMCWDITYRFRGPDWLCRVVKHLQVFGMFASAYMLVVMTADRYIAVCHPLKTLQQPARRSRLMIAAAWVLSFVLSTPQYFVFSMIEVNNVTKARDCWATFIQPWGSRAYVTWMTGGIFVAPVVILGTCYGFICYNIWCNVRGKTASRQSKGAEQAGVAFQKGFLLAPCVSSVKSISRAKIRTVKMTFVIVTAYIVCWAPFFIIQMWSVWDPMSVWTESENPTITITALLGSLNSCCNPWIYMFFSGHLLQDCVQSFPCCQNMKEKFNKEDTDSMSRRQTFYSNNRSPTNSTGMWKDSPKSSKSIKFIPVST

Histamine H3 receptor = Histamine H3 receptor (Homo sapiens, UniProt Q9Y5N1)
Chain of Histamine H3 receptor (Q9Y5N1 whole entry): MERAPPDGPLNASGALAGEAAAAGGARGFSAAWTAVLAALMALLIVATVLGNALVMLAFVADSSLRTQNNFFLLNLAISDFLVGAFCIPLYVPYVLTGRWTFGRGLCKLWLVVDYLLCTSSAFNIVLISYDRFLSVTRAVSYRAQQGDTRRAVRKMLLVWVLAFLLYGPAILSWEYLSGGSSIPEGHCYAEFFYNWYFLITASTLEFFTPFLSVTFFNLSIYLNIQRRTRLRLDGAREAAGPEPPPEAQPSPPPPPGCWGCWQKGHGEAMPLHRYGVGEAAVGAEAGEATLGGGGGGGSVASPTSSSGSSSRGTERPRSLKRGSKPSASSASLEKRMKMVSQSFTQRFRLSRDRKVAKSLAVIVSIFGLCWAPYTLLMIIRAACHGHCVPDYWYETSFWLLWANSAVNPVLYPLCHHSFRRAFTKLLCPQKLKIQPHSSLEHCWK

B2 bradykinin receptor = target: T3, B2 bradykinin receptor (Homo sapiens, UniProt P30411)
T3 sequence (P30411 whole entry): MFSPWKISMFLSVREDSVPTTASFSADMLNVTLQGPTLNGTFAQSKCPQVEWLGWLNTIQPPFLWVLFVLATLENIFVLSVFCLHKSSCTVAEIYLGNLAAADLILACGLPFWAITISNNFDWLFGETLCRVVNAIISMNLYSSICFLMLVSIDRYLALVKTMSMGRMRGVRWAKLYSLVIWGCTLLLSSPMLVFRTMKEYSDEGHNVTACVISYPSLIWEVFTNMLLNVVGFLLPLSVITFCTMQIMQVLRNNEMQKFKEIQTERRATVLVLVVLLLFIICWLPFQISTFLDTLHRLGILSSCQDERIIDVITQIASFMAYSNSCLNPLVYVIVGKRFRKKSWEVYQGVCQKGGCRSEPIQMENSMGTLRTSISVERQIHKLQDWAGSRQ

[2] = target: 5-hydroxytryptamine receptor 2A (Homo sapiens, UniProt P28223); format: functional, cell-based
Chain of 5-hydroxytryptamine receptor 2A (P28223 whole entry): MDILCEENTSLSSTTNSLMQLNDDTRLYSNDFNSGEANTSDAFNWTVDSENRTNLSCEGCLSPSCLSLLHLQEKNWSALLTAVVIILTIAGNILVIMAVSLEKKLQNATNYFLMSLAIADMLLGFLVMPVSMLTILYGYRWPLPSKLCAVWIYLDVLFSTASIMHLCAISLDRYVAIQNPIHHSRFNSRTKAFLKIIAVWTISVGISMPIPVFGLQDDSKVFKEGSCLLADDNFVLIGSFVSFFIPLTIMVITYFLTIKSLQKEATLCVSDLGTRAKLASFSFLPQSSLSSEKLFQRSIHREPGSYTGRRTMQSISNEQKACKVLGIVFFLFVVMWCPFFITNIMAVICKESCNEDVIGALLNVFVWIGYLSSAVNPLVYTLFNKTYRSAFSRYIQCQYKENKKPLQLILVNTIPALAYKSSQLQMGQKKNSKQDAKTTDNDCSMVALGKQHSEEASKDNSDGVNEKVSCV

Melanocortin receptor 3 = Melanocortin receptor 3 (Homo sapiens, UniProt P41968)
Chain of Melanocortin receptor 3 (P41968 whole entry): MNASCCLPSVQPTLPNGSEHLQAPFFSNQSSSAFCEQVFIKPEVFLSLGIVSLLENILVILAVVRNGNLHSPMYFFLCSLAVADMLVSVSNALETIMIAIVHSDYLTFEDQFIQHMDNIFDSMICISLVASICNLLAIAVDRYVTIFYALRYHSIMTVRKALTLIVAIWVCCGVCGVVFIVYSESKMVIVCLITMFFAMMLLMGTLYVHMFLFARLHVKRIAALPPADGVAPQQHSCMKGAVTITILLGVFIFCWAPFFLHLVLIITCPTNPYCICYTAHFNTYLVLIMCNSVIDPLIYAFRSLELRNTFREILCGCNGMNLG

[3] = target: T4, 5-hydroxytryptamine receptor 1A (Homo sapiens, UniProt P08908); format: functional, cell-based
T4 sequence (P08908 whole entry): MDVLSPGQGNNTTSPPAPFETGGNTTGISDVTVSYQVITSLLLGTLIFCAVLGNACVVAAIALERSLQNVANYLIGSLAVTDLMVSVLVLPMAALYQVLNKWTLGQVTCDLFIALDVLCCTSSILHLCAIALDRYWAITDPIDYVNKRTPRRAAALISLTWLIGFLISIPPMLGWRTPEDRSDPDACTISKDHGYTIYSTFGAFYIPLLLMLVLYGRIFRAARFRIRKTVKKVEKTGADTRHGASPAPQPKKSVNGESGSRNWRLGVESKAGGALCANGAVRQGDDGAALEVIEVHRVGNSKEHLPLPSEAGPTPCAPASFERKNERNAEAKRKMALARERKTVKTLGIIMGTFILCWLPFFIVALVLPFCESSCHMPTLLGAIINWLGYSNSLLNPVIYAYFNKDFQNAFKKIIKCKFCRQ

[4] = target: Sodium-dependent serotonin transporter (Homo sapiens, UniProt P31645)
Chain of Sodium-dependent serotonin transporter (P31645 whole entry): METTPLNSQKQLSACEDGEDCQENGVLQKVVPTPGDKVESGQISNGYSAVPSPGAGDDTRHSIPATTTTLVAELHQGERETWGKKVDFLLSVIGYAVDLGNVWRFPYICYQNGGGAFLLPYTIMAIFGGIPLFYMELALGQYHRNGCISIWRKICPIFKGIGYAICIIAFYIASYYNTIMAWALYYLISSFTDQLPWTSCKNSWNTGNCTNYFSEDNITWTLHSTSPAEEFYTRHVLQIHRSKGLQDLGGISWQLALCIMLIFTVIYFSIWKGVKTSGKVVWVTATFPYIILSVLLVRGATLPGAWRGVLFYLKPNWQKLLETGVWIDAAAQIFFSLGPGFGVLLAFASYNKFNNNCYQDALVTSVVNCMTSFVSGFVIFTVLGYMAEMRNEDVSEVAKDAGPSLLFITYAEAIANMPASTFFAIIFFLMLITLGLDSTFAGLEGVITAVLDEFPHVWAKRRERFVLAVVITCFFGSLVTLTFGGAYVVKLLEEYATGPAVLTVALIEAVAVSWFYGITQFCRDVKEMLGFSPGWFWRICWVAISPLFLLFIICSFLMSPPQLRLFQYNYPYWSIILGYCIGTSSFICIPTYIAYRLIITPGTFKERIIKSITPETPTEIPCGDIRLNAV
Further: assay procedure not described here.

Which results are given for `COC(=O)[C@H]1[C@@H](OC(=O)c2ccccc2)C[C@@H]2CC[C@H]1N2C` [COCAINE]?
AC50 (Progesterone receptor): > 30 µM; AC50 [1]: > 30 µM; AC50 (Vasopressin V1a receptor): > 30 µM; AC50 (Histamine H3 receptor): > 30 µM; AC50 (B2 bradykinin receptor): > 30 µM; AC50 [2]: > 30 µM; AC50 (Melanocortin receptor 3): > 30 µM

Which results are given for `CCCOc1ccc(C(=O)OCCN(CC)CC)cc1N` [PROPARACAINE]?
AC50 (Progesterone receptor): > 30 µM; AC50 (Histamine H3 receptor): 1.3 µM; AC50 (B2 bradykinin receptor): > 30 µM; AC50 (Melanocortin receptor 3): > 30 µM

With TOCOFERSOLAN as the molecule, how does the AC50 (Progesterone receptor) read?
Its AC50 is over 30 µM.

And the AC50 [3]?
The AC50 was over 30 µM.

What about the AC50 [1] of the same molecule?
The AC50 was over 30 µM.

And the AC50 (Vasopressin V1a receptor)?
The AC50 was over 30 µM.

What about the AC50 (Histamine H3 receptor) of the same molecule?
Its AC50 is over 30 µM.

What about the AC50 (B2 bradykinin receptor) of the same molecule?
The AC50 was over 30 µM.

And the AC50 [2]?
The AC50 was over 30 µM.

What about the AC50 (Melanocortin receptor 3) of the same molecule?
The AC50 was over 30 µM.

`CC(C)c1c(C(=O)Nc2ccccc2)c(-c2ccccc2)c(-c2ccc(F)cc2)n1CC[C@@H](O)C[C@@H](O)CC(=O)O` [ATORVASTATIN] was tested. Which AC50 [3] did it give?
The AC50 was over 10 µM.

And the AC50 (Vasopressin V1a receptor)?
Its AC50 is over 30 µM.

What about the AC50 (Histamine H3 receptor) of the same molecule?
Its AC50 is over 10 µM.

And the AC50 (B2 bradykinin receptor)?
Its AC50 is over 30 µM.

And the AC50 (Melanocortin receptor 3)?
The AC50 was over 30 µM.

`CCN1CCC[C@H]1CNC(=O)c1cc(S(N)(=O)=O)ccc1OC` [LEVOSULPIRIDE] was tested. Which AC50 (Vasopressin V1a receptor) did it give?
The AC50 was over 30 µM.

What about the AC50 (Histamine H3 receptor) of the same molecule?
Its AC50 is over 10 µM.

What about the AC50 (B2 bradykinin receptor) of the same molecule?
Its AC50 is over 30 µM.

And the AC50 (Melanocortin receptor 3)?
The AC50 was over 30 µM.

Which results are given for `CN[C@@H]1[C@H](O)[C@H](NC)[C@H]2O[C@@]3(O)C(=O)C[C@@H](C)O[C@H]3O[C@@H]2[C@H]1O` [SPECTINOMYCIN]?
AC50 (Progesterone receptor): > 10 µM; AC50 [3]: > 30 µM; AC50 (Histamine H3 receptor): > 10 µM; AC50 (B2 bradykinin receptor): > 10 µM; AC50 (Melanocortin receptor 3): > 10 µM

Which results are given for `Cc1c(C(=O)Nc2ccc(N3C[C@@H](C)O[C@@H](C)C3)nc2)cccc1-c1ccc(OC(F)(F)F)cc1` [SONIDEGIB]?
AC50 [4]: > 10 µM; AC50 [1]: > 10 µM; AC50 (Vasopressin V1a receptor): > 10 µM; AC50 (Histamine H3 receptor): > 10 µM; AC50 (B2 bradykinin receptor): > 30 µM; AC50 (Melanocortin receptor 3): > 30 µM

For `COc1ccc2cccc(CCNC(C)=O)c2c1` [AGOMELATINE], which AC50 [4] is on record?
Its AC50 is over 10 µM.

And the AC50 [3]?
Its AC50 is over 10 µM.

And the AC50 [1]?
The AC50 was over 10 µM.

And the AC50 (Vasopressin V1a receptor)?
Its AC50 is over 10 µM.

What about the AC50 (Histamine H3 receptor) of the same molecule?
The AC50 was over 10 µM.

And the AC50 (B2 bradykinin receptor)?
The AC50 was over 30 µM.

What about the AC50 (Melanocortin receptor 3) of the same molecule?
The AC50 was over 30 µM.

What does the source list for `COc1c(N2CCNC(C)C2)c(F)cc2c(=O)c(C(=O)O)cn(C3CC3)c12` (centres undefined) [GATIFLOXACIN]?
AC50 (Progesterone receptor): > 10 µM; AC50 [3]: > 10 µM; AC50 (B2 bradykinin receptor): > 10 µM; AC50 (Melanocortin receptor 3): > 10 µM

Which results are given for `CCN(CC)CCOC(=O)c1ccc(N)cc1` [PROCAINE]?
AC50 (Histamine H3 receptor): 8.7 µM; AC50 (B2 bradykinin receptor): > 30 µM; AC50 (Melanocortin receptor 3): > 30 µM

Which AC50 (Progesterone receptor) does the source give for `Cc1cccc(C)c1NC(=O)C1CCCCN1C` (centres undefined) [MEPIVACAINE] here?
Its AC50 is over 30 µM.

What about the AC50 [3] of the same molecule?
The AC50 was over 30 µM.

What about the AC50 (Histamine H3 receptor) of the same molecule?
Its AC50 is over 30 µM.

And the AC50 (B2 bradykinin receptor)?
The AC50 was over 30 µM.

What about the AC50 (Melanocortin receptor 3) of the same molecule?
Its AC50 is over 30 µM.

Which results are given for `C[C@]12CCC(=O)C=C1CC[C@@H]1[C@@H]2CC[C@@]2(C)[C@H]1CC[C@]2(C)O` [METHYLTESTOSTERONE]?
AC50 (Progesterone receptor): 0.2 µM; AC50 [3]: > 30 µM; AC50 (Histamine H3 receptor): > 30 µM; AC50 (B2 bradykinin receptor): > 30 µM; AC50 (Melanocortin receptor 3): > 30 µM

Which AC50 [3] does the source give for `NC(=O)C[S+]([O-])C(c1ccccc1)c1ccccc1` (centres undefined) [MODAFINIL] here?
The AC50 was over 10 µM.

And the AC50 (Vasopressin V1a receptor)?
The AC50 was over 10 µM.

And the AC50 (Histamine H3 receptor)?
Its AC50 is over 10 µM.

What about the AC50 (B2 bradykinin receptor) of the same molecule?
The AC50 was over 30 µM.

What about the AC50 (Melanocortin receptor 3) of the same molecule?
The AC50 was 21.2 µM.

`CCCCN1CCCCC1C(=O)Nc1c(C)cccc1C` (centres undefined) [BUPIVACAINE] was tested. Which AC50 (Progesterone receptor) did it give?
Its AC50 is over 30 µM.

What about the AC50 [3] of the same molecule?
The AC50 was over 30 µM.

What about the AC50 (Histamine H3 receptor) of the same molecule?
Its AC50 is over 30 µM.

And the AC50 (B2 bradykinin receptor)?
Its AC50 is over 30 µM.

And the AC50 (Melanocortin receptor 3)?
Its AC50 is over 30 µM.

How did the AC50 (Progesterone receptor) turn out when `CN1C(=O)COc2c(C(=O)NC3CN4CCC3CC4)cc(Cl)cc21` (centres undefined) [AZASETRON] was run?
Its AC50 is over 30 µM.

And the AC50 [3]?
The AC50 was over 30 µM.

What about the AC50 (Vasopressin V1a receptor) of the same molecule?
Its AC50 is over 30 µM.

And the AC50 (Histamine H3 receptor)?
Its AC50 is over 30 µM.

And the AC50 (B2 bradykinin receptor)?
Its AC50 is over 30 µM.

And the AC50 (Melanocortin receptor 3)?
Its AC50 is over 30 µM.
